Source: patent US8128962B2, “Liquid compositions containing solubilized benzoyl peroxide, means for applying same and methods of treatment using same” (priority 2007, dated 2012)

Assays:
[1] = Solubility of BP in solvents; assay type: physicochemical
[2] = water and most dermatologically safe solvents; cited from earlier work
Propionibacterium acnes = settings: versus clindamycin or erythromycin; Leyden 2001; cited from earlier work

## O=C(OOC(=O)c1ccccc1)c1ccccc1 [BP, benzoyl peroxide]
[1]
  Solubility of BP in absolute alcohol: poor
[2]
  Solubility of BP in water: virtually insoluble
Propionibacterium acnes
  Effectiveness in killing the bacteria responsible for causing acne: more effective than either clindamycin or erythromycin
